Each structure is given as a SMILES string.

Beta-3 Adrenergic Receptor, sequence (P13945 whole entry, species assumed): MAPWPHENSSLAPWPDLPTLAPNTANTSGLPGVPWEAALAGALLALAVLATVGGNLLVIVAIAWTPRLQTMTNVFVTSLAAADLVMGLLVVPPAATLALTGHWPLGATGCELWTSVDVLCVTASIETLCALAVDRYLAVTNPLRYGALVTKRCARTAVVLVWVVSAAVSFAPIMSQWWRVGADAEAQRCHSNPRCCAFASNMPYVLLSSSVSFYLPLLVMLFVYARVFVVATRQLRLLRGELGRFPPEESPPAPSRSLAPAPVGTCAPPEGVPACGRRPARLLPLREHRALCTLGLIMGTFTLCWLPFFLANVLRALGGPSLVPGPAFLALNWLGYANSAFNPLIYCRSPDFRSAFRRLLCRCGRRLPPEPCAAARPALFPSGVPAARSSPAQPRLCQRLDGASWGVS

The assay addresses Beta-3 Adrenergic Receptor (Homo sapiens (Human), UniProt P13945). As to the kind of experiment: Homogeneous Time-Resolved Fluorescence (HTRF) cAMP antagonist assay, IC50 determination. The format is cell-based. The conditions noted are these: CHO-K1 cells stably expressing recombinant receptor, isoproterenol at EC90. As for the experimental part:
HTRF cAMP assays were performed according to manufacturer's instructions (Cisbio, cAMP Dynamic 2 Assay Kit; #62AM4PEJ). CHO-K1 cells stably expressing recombinant receptor were harvested and suspended in warm PBS to make a 300,000 cells/mL stock. This cell suspension was dispensed into 384 well assay plates (PerkinElmer ProxiPlate #6008280) at 5 μL per well (1500 cells/well) along with a cAMP standard curve.
Compounds were dissolved and serially diluted (5-fold) in DMSO to generate a 10-point dose response stock. The stock was then diluted 100-fold in assay buffer (PBS containing 1 mM IBMX) before a volume of 2.5 μL was added to the cells (the final, top concentration of compound in the dose-response is typically 10 or 100 μM). After a brief incubation, 2.5 μL of isoproterenol stock, prepared at a concentration 4 times its EC90 at the receptor of interest, was added to the wells. The EC90 for isoproterenol, a beta-adrenergic agonist, was determined in separate experiments using standard methods to measure agonist potencies.
Following a 1-hour incubation at room temperature, 5 μL of cAMP-D2 Reagent diluted in Lysis Buffer was added to each well followed by 5 μL of Cryptate Reagent. Plates were further incubated at room temperature for 1 hour prior to reading. Time resolved fluorescence measurements were collected on a suitable, HTRF-capable plate reader.
Counts from the plate reader were fit to the cAMP standard curve on the assay plate in order to determine cAMP concentrations in each well, and these values were used to construct dose-response curves to obtain IC50 values.
`CNS(=O)(=O)c1cccc(OC[C@@H](O)CNC2COC3(CCN(S(=O)(=O)c4ccc(C#N)cc4)CC3)C2)c1` (stereo partly drawn) [Compound 44, 3-((2S)-3-(8-(4-cyanophenylsulfonyl)-1-oxa-8-azaspiro[4.5]decan-3-ylamino)-2-hydroxypropoxy)-N-methylbenzenesulfonamide]: the IC50 is 34.1 nM.

For `CNS(=O)(=O)c1cccc(OC[C@@H](O)CNC2COC3(CCN(S(=O)(=O)c4ccc(C(F)(F)F)cc4)CC3)C2)c1` (stereo partly drawn) [Compound 45, 3-((2S)-2-hydroxy-3-(8-(4-(trifluoromethyl)phenylsulfonyl)-1-oxa-8-azaspiro[4.5]decan-3-ylamino)propoxy)-N-methylbenzenesulfonamide], the 50% inhibitory concentration (IC50) worked out at 19.4 nM. Under `CC(O)CNS(=O)(=O)c1cccc(OC[C@@H](O)CNC2COC3(CCN(S(=O)(=O)c4ccc5ccccc5c4)CC3)C2)c1` (stereo partly drawn) [Compound 46, 3-((2S)-2-hydroxy-3-(8-(naphthalen-2-ylsulfonyl)-1-oxa-8-azaspiro[4.5]decan-3-ylamino)propoxy)-N-(2-hydroxypropyl)benzenesulfonamide] stands 54.1 nM; under `CCOCCNS(=O)(=O)c1cccc(OC[C@@H](O)CNC2COC3(CCN(S(=O)(=O)c4ccc5ccccc5c4)CC3)C2)c1` (stereo partly drawn) [Compound 47, N-(2-ethoxyethyl)-3-((2S)-2-hydroxy-3-(8-(naphthalen-2-ylsulfonyl)-1-oxa-8-azaspiro[4.5]decan-3-ylamino)propoxy)benzenesulfonamide], 155 nM; under `C[C@@H](CO)NS(=O)(=O)c1cccc(OC[C@@H](O)CNC2COC3(CCN(S(=O)(=O)c4ccc5ccccc5c4)CC3)C2)c1` (stereo partly drawn) [Compound 48, 3-((2S)-2-hydroxy-3-(8-(naphthalen-2-ylsulfonyl)-1-oxa-8-azaspiro[4.5]decan-3-ylamino)propoxy)-N—((S)-1-hydroxypropan-2-yl)benzenesulfonamide], 133 nM. Under `CC(C)(CO)NS(=O)(=O)c1cccc(OC[C@@H](O)CNC2COC3(CCN(S(=O)(=O)c4ccc5ccccc5c4)CC3)C2)c1` (stereo partly drawn) [Compound 49, N-(1-hydroxy-2-methylpropan-2-yl)-3-((2S)-2-hydroxy-3-(8-(naphthalen-2-ylsulfonyl)-1-oxa-8-azaspiro[4.5]decan-3-ylamino)propoxy)benzenesulfonamide] stands 107 nM; under `O=S(=O)(NC1CCOCC1)c1cccc(OC[C@@H](O)CNC2COC3(CCN(S(=O)(=O)c4ccc5ccccc5c4)CC3)C2)c1` (stereo partly drawn) [Compound 50, 3-((2S)-2-hydroxy-3-(8-(naphthalen-2-ylsulfonyl)-1-oxa-8-azaspiro[4.5]decan-3-ylamino)propoxy)-N-(tetrahydro-2H-pyran-4-yl)benzenesulfonamide], 87.2 nM. Under `O=S(=O)(NCCCO)c1cccc(OC[C@@H](O)CNC2COC3(CCN(S(=O)(=O)c4ccc5ccccc5c4)CC3)C2)c1` (stereo partly drawn) [Compound 51, 3-((2S)-2-hydroxy-3-(8-(naphthalen-2-ylsulfonyl)-1-oxa-8-azaspiro[4.5]decan-3-ylamino)propoxy)-N-(3-hydroxypropyl)benzenesulfonamide] stands 58.5 nM. `CNS(=O)(=O)c1cccc(OC[C@@H](O)CNC2COC3(CCN(S(=O)(=O)c4ccc(Br)cc4)CC3)C2)c1` (stereo partly drawn) [Compound 52, 3-((2S)-3-(8-(4-bromophenylsulfonyl)-1-oxa-8-azaspiro[4.5]decan-3-ylamino)-2-hydroxypropoxy)-N-methylbenzenesulfonamide]: the IC50 worked out at 14.1 nM. The figure for `CNS(=O)(=O)c1cccc(OC[C@@H](O)CNC2COC3(CCN(S(=O)(=O)c4ccc(C)cc4)CC3)C2)c1` (stereo partly drawn) [Compound 53, 3-((2S)-2-hydroxy-3-(8-tosyl-1-oxa-8-azaspiro[4.5]decan-3-ylamino)propoxy)-N-methylbenzenesulfonamide] is 21.8 nM; for `CNS(=O)(=O)c1cccc(OC[C@@H](O)CNC2COC3(CCN(S(=O)(=O)c4ccccc4Br)CC3)C2)c1` (stereo partly drawn) [Compound 54, 3-((2S)-3-(8-(2-bromophenylsulfonyl)-1-oxa-8-azaspiro[4.5]decan-3-ylamino)-2-hydroxypropoxy)-N-methylbenzenesulfonamide] it is 17.4 nM. Regarding `CNS(=O)(=O)c1cccc(OC[C@@H](O)CNC2COC3(CCN(S(=O)(=O)c4cccc5ccccc45)CC3)C2)c1` (stereo partly drawn) [Compound 55, 3-((2S)-2-hydroxy-3-(8-(naphthalen-1-ylsulfonyl)-1-oxa-8-azaspiro[4.5]decan-3-ylamino)propoxy)-N-methylbenzenesulfonamide], the IC50 worked out at 18 nM. With `CNS(=O)(=O)c1cccc(OC[C@@H](O)CNC2COC3(CCN(S(=O)(=O)c4cccc(C(=O)O)c4)CC3)C2)c1` (stereo partly drawn) [Compound 56, 3-(3-((S)-2-hydroxy-3-(3-(N-methylsulfamoyl)phenoxy)propylamino)-1-oxa-8-azaspiro[4.5]decan-8-ylsulfonyl)benzoic acid], the IC50 was determined as 387 nM. Under `CNS(=O)(=O)c1cccc(OC[C@@H](O)CNC2COC3(CCN(S(=O)(=O)c4ccc(OC(F)(F)F)cc4)CC3)C2)c1` (stereo partly drawn) [Compound 57, 3-((2S)-2-hydroxy-3-(8-(4-(trifluoromethoxy)phenylsulfonyl)-1-oxa-8-azaspiro[4.5]decan-3-ylamino)propoxy)-N-methylbenzenesulfonamide] stands 31.7 nM; under `CNS(=O)(=O)c1cccc(OC[C@@H](O)CNC2COC3(CCN(S(=O)(=O)c4ccc5[nH]c(=O)sc5c4)CC3)C2)c1` (stereo partly drawn) [Compound 58, 3-((2S)-2-hydroxy-3-(8-(2-oxo-2,3-dihydrobenzo[d]thiazol-6-ylsulfonyl)-1-oxa-8-azaspiro[4.5]decan-3-ylamino)propoxy)-N-methylbenzenesulfonamide], 43 nM. Under `CNS(=O)(=O)c1cccc(OC[C@@H](O)CNC2COC3(CCN(S(=O)(=O)c4cccc(-c5c(C)noc5C)c4)CC3)C2)c1` (stereo partly drawn) [Compound 59, 3-((2S)-3-(8-(3-(3,5-dimethylisoxazol-4-yl)phenylsulfonyl)-1-oxa-8-azaspiro[4.5]decan-3-ylamino)-2-hydroxypropoxy)-N-methylbenzenesulfonamide] stands 14.5 nM; under `COCCN(C)S(=O)(=O)c1cccc(OC[C@@H](O)CNC2COC3(CCN(S(=O)(=O)c4ccc5ccccc5c4)CC3)C2)c1` (stereo partly drawn) [Compound 60, 3-((2S)-2-hydroxy-3-(8-(naphthalen-2-ylsulfonyl)-1-oxa-8-azaspiro[4.5]decan-3-ylamino)propoxy)-N-(2-methoxyethyl)-N-methylbenzenesulfonamide], 58.8 nM; under `CNS(=O)(=O)c1cccc(OC[C@@H](O)CNC2COC3(CCN(S(=O)(=O)c4cccc(-c5cnn(C)c5)c4)CC3)C2)c1` (stereo partly drawn) [Compound 61, 3-((2S)-2-hydroxy-3-(8-(3-(1-methyl-1H-pyrazol-4-yl)phenylsulfonyl)-1-oxa-8-azaspiro[4.5]decan-3-ylamino)propoxy)-N-methylbenzenesulfonamide], 13.5 nM. Regarding `CNS(=O)(=O)c1cccc(OC[C@@H](O)CNC2COC3(CCN(S(=O)(=O)c4cccc(-c5cn(C)nc5C(F)(F)F)c4)CC3)C2)c1` (stereo partly drawn) [Compound 62, 3-((2S)-2-hydroxy-3-(8-(3-(1-methyl-3-(trifluoromethyl)-1H-pyrazol-4-yl)phenylsulfonyl)-1-oxa-8-azaspiro[4.5]decan-3-ylamino)propoxy)-N-methylbenzenesulfonamide], the IC50 turned out to be 44.9 nM. The figure for `CNS(=O)(=O)c1cccc(OC[C@@H](O)CNC2COC3(CCN(S(=O)(=O)c4cccc(-c5cc[nH]c5)c4)CC3)C2)c1` (stereo partly drawn) [Compound 63, 3-((2S)-3-(8-(3-(1H-pyrrol-3-yl)phenylsulfonyl)-1-oxa-8-azaspiro[4.5]decan-3-ylamino)-2-hydroxypropoxy)-N-methylbenzenesulfonamide] is 19.3 nM. The figure for `CNS(=O)(=O)c1cccc(OC[C@@H](O)CNC2COC3(CCN(S(=O)(=O)c4cccc(-c5cn[nH]c5)c4)CC3)C2)c1` (stereo partly drawn) [Compound 64, 3-((2S)-3-(8-(3-(1H-pyrazol-4-yl)phenylsulfonyl)-1-oxa-8-azaspiro[4.5]decan-3-ylamino)-2-hydroxypropoxy)-N-methylbenzenesulfonamide] is 11.1 nM; for `CNS(=O)(=O)c1cccc(OC[C@@H](O)CNC2COC3(CCN(S(=O)(=O)c4cccc(-c5cccc(COC)c5)c4)CC3)C2)c1` (stereo partly drawn) [Compound 65, 3-((2S)-2-hydroxy-3-(8-(3′-(methoxymethyl)biphenyl-3-ylsulfonyl)-1-oxa-8-azaspiro[4.5]decan-3-ylamino)propoxy)-N-methylbenzenesulfonamide] it is 85.6 nM; for `CNS(=O)(=O)c1cccc(OC[C@@H](O)CNC2COC3(CCN(S(=O)(=O)c4cccc(-c5ccsc5)c4)CC3)C2)c1` (stereo partly drawn) [Compound 66, 3-((2S)-2-hydroxy-3-(8-(3-(thiophen-3-yl)phenylsulfonyl)-1-oxa-8-azaspiro[4.5]decan-3-ylamino)propoxy)-N-methylbenzenesulfonamide] it is 22.7 nM. For the compound `CNS(=O)(=O)c1cccc(OC[C@@H](O)CNC2COC3(CCN(S(=O)(=O)c4cccc(-c5cccc(CN)c5)c4)CC3)C2)c1` (stereo partly drawn) [Compound 67, 3-((2S)-3-(8-(3′-(aminomethyl)biphenyl-3-ylsulfonyl)-1-oxa-8-azaspiro[4.5]decan-3-ylamino)-2-hydroxypropoxy)-N-methylbenzenesulfonamide], the IC50 worked out at 23.1 nM.

The values are drawn from patent US11987588B2, “Modulators of the beta-3 adrenergic receptor useful for the treatment or prevention of heart failure and disorders related thereto” (Arena Pharmaceuticals, Inc., priority 2017, dated 2024).
